According to patent EP4722365A1, “DOUBLE-STRANDED NUCLEOTIDE COMPOUND FOR METABOLIC DISEASES AND USE THEREOF” (Visirna Therapeutics (Suzhou) Co., Ltd., priority 2023, dated 2024):

Experiments:
DGAT2 [1] = assay: Inhibition rate on target gene DGAT2 mRNA in primary human hepatocytes (PHHs), free uptake; type: cell-based
Description: The test compound was prepared into a 100 µM/200 µM mother liquor with PBS.
Human hepatocytes (PHHs). PHHs were revived and cultured in InvitroGRO CP medium (BIOIVT article number S0331) containing 10% fetal bovine serum (FBS, Gibco article number 10091148) and 1% penicillin-streptomycin (PS, HyClone article number SV30010).
PHHs (5.4 × 10^4 cells/well) were inoculated into a 96-well plate, and siRNA was added into the cell while plating. The compound entered the cells through free uptake. […] concentration points (100 nM, 20 nM, 4 nM, 0.8 nM, 0.16 nM, 0.032 nM, and 0.0064 nM) were set for siRNA test, and 2 wells were measured in parallel. At the same time, a compound-free control group containing PBS was set up. The cells were cultured in an incubator at 37°C with 5% CO2.
48 hrs later, the medium was removed and the cells were collected for RNA extraction. Total RNA was extracted by using RNeasy® 96 Kit (QIAGEN-74182) according to the instructions for use of the kit. cDNA was synthesized by using HiScript III RT SuperMix for qPCR (+gDNA wiper) (Vazyme article number R323-01) following the instructions.
The target gen cDNA was detected by qPCR, and the internal reference gene GAPDH cDNA was also detected. 8 µL of prepared PCR reaction solution and 2 µL of sample cDNA were added into a 384 well plate. […]

human DGAT2 = assay: Non-alcoholic steatohepatitis induced by a western diet in human DGAT2 carrying mice (Example 9, liver histology scores); type: in vivo, mouse; conditions: for Ballooning degeneration / Fibrosis score / Grade of steatosis / Lobular inflammation / NAFLD score: B6-hDGAT2 mice, western diet
Description: Humanized mice with B6-hDGAT2-TG target and non-alcoholic steatohepatitis model were provided by GemPharmatech LLC. On D0, subcutaneous administration and induction and feeding with western diet were started. On D29, the second injection was performed. Effective period: 8 weeks. 4 mice in one group were sacrificed at 4-week endpoint, and 4 mice in the other group were sacrificed at 8-week endpoint.
Plasma was collected every week to detect the levels of TG, Chol, HDL-C, LDL-C, ALT, and AST, and the liver was stained with HE and NASH score were obtained at the endpoint.

DGAT2 [2] = assay: Inhibitory activity on the target gene DGAT2 in non-naive Cynomolgus macaque (Example 10, liver biopsy qPCR); type: in vivo
Description: The in-vivo experimental designs for subcutaneous injection in non-naive Cynomolgus macaque, the administration and the sample collection method were shown in the table below.
The day of administration to non-naive Cynomolgus macaque was defined as day 1, the day before it was day 0, the day after it was day 2, and so on. Each group had 2 animals. On days 1, 4, 8, 15, 22, 29, 36, 43, 50, and 57, the animals in Groups 1 and 2 were injected with the solvent or 4 mg/kg (0.5mL/kg) of the positive reference compound. On days 1 and 29, the animals in Groups 3 to 7 were injected subcutaneously with 0.5 mL/kg of the test compound.
On day 0 (0 h) before administration by SC, and days 7, 15, 28, 57, and 99 after administration, the liver sample was collected. Collection method: The animals was fasted for 12-16 hrs before sample collection. Collection of liver biopsy tissue: The collection process would be operated and recorded according to the SOP of the research institution. The location of the liver was determined by B ultrasound scan, the right liver was mainly used, and the gallbladder and major blood vessels were avoided. The biopsy needle was inserted under the guidance of the B-ultrasound probe. Guided by the image on the B-ultrasound screen, the needle entered the liver away from the gallbladder and major blood vessels, and the materials were sampled by puncture. After biopsy, the biopsy needle was withdrawn and the samples were collected. The obtained samples were immediately immersed in PBS with RNAlater®, and allowed to stand overnight at 4°C. Then the residual liquid was sucked off, and the remainder was stored at -80°C or below until it was transported in the presence of dry ice and detected.
Trizol was homogenized by Qiagen Tissue Lyser II at 26 Hz for 2 min and lyzed at room temperature for 5 min. 1 mL of the supernatant was taken, added to 200 uL of chloroform, shaken for 15 s, allowed to stand for 3 min, and centrifuged. The supernatant was collected, added with an equal volume of isopropanol, and stood overnight at -20°C for precipitation. The precipitate was washed twice with 70%, and dissolved in water without RNase. The concentration of the RNA sample was determined by Nanodrop ONE and diluted to 200 ng/µL with water without RNase for reverse transcription.
The experimental steps of reverse transcription could be made reference to the instruction of HiScript® III RT SuperMix for qPCR (+gDNA wiper). Briefly, a gDNA removal mixture was prepared according to the table below. A mixture (11 µL/sample) of 4 x gDNA wiper Mix and RNase-Free ddH2O and 1000 ng RNA sample (5 µL RNA sample with a concentration of 200 ng/µL) were added to a 96-well PCR reaction plate, incubated at 42°C for 2 min, and cooled on ice. 4 µL 5 x HiScript III qRT SuperMix and the DNA removed product from the previous step were added to a 96-well PCR reaction plate for reverse transcription. Reaction conditions: 37°C for 15 min; and 85°C for 5 sec. The cDNA was stored at 4°C for further analysis.
The method for detecting the expression levels of DGAT2 and GAPDH genes in the liver of Cynomolgus macaque by quantitative PCR was briefly described as follows: As shown in the table below, a qPCR reaction mixture was prepared, and 2 µL of a cDNA sample diluted 2 times with RNase-free water was added for PCR reaction. Reaction conditions: 95°C for 10 min; and 40 cycles of 95°C for 15 sec, and 60°C for 1 min.
All values were normalized to the average of the group on day 0.

[3] = 3mpk, D0 and D29, 8-week endpoint
[4] = 3mpk, 4-week endpoint, mean ± SEM
[5] = 6mpk, D0 and D29, 8-week endpoint
[6] = 6mpk, 4-week endpoint, mean ± SEM
[7] = 3mpk subcutaneous on days 1 and 29, normalized to day 0
[8] = 10mpk subcutaneous on days 1 and 29, normalized to day 0

dS319: sense (invAb)*acaccauaGfAfCfuauuugcuua[L96]; anti-sense Vpu*Af*a*GfcAfaauagUfcUfaUfgGfuGf* u
IC50 (DGAT2 [1]): 0.0623 nM | Ballooning degeneration (human DGAT2; [3]): 2.0±0.0 | Fibrosis score (human DGAT2; [3]): 0.9±0.1 | Grade of steatosis (human DGAT2; [3]): 1.0±0.0 | Lobular inflammation (human DGAT2; [3]): 1.8±0.2 | NAFLD score (human DGAT2; [3]): 4.8±0.2 | Ballooning degeneration (human DGAT2; [4]): 2.0±0.0 | Fibrosis score (human DGAT2; [4]): 0.5±0.1 | Grade of steatosis (human DGAT2; [4]): 0.7±0.1 | Lobular inflammation (human DGAT2; [4]): 2.2±0.1 | NAFLD score (human DGAT2; [4]): 4.9±0.2 | Ballooning degeneration (human DGAT2; [5]): 1.3±0.1 | Fibrosis score (human DGAT2; [5]): 0.8±0.2 | Grade of steatosis (human DGAT2; [5]): 1.1±0.1 | Lobular inflammation (human DGAT2; [5]): 2.0±0.1 | NAFLD score (human DGAT2; [5]): 4.3±0.0 | Ballooning degeneration (human DGAT2; [6]): 1.3±0.1 | Fibrosis score (human DGAT2; [6]): 0.4±0.1 | Grade of steatosis (human DGAT2; [6]): 0.5±0.2 | Lobular inflammation (human DGAT2; [6]): 1.6±0.2 | NAFLD score (human DGAT2; [6]): 3.4±0.2 | improvement on non-alcoholic steatohepatitis (NASH) by NAFLD activity score (human DGAT2; FIG. 1 legend, hDGAT2 combined with western diet, over 4 weeks): improvement | improvement on fibrosis in non-alcoholic steatohepatitis (human DGAT2; FIG. 2 legend, hDGAT2 combined with western diet, over 4 weeks): improvement | Average inhibition rate, % (D28) (DGAT2 [2]; [7]): 86.6% | Average inhibition rate, % (D56) (DGAT2 [2]; [7]): 91.1% | Average inhibition rate, % (D99) (DGAT2 [2]; [7]): 72.2% | Average inhibition rate, % (D28) (DGAT2 [2]; [8]): 96.0% | Average inhibition rate, % (D56) (DGAT2 [2]; [8]): 97.9% | Average inhibition rate, % (D99) (DGAT2 [2]; [8]): 89.1%
